Measured values reported in the supplement of paper PMC10883282.
± gives the standard deviation of the averaged measurements.

Key:
Experiment in all cases: relative viability vs DMSO control (72 h) (fraction); higher = more viable cells
A204 = tested on: A204
Summary of the method: (§1)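 After seeding at densities set for 80–90% confluence in 384-well plates, sarcoma cell lines waited 24 h before 2.5 µl of serially diluted compound was added. Source plates held 10 mM down to 0.0002 mM. Plates were incubated 72 h at 37 °C with 5% CO2, with 0.1% DMSO vehicle and a 5 µM positive control, and relative viability was taken from ATPLite as percent growth averaged over up to triplicate wells, with 1 set as full and 0 as none.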

G401 = tested on: G401
Summary of the method: as §1

HT1080 = tested on: HT1080
Summary of the method: as §1

KHOS-240S = tested on: KHOS-240S
Summary of the method: as §1

KHOS-NP = tested on: KHOS-NP
Summary of the method: as §1

RD-ES = tested on: RD-ES
Summary of the method: as §1

SK-ES-1 = tested on: SK-ES-1
Summary of the method: as §1

SW1353 = tested on: SW1353
Summary of the method: as §1

SW684 = tested on: SW684
Summary of the method: as §1

SW872 = tested on: SW872
Summary of the method: as §1

SW982 = tested on: SW982
Summary of the method: as §1

SYO-1 = tested on: SYO-1
Summary of the method: as §1

COc1cc(OC)cc(N(CCNC(C)C)c2ccc3ncc(-c4cnn(C)c4)nc3c2)c1 [Erdafitinib]
Conditions	relative viability
A204, 0.00017 µM	1.04 ± 0.034
A204, 0.00051 µM	1.03 ± 0.011
A204, 0.00152 µM	0.971 ± 0.035
A204, 0.00457 µM	0.934 ± 0.057
A204, 0.01372 µM	0.746 ± 0.054
A204, 0.04115 µM	0.595 ± 0.045
A204, 0.1235 µM	0.422 ± 0.07
A204, 0.3704 µM	0.322 ± 0.085
A204, 1.111 µM	0.194 ± 0.0018
A204, 3.333 µM	0.127 ± 0.013
A204, 10 µM	0.0417 ± 0.0062
G401, 0.00017 µM	0.991 ± 0.018
G401, 0.00051 µM	0.976 ± 0.048
G401, 0.00152 µM	0.933 ± 0.032
G401, 0.00457 µM	0.806 ± 0.027
G401, 0.01372 µM	0.707 ± 0.038
G401, 0.04115 µM	0.591 ± 0.018
G401, 0.1235 µM	0.534 ± 0.017
G401, 0.3704 µM	0.472 ± 0.03
G401, 1.111 µM	0.376 ± 0.025
G401, 3.333 µM	0.233 ± 0.01
G401, 10 µM	0.121 ± 0.0045
HT1080, 0.00017 µM	1.06 ± 0.028
HT1080, 0.00051 µM	1.09 ± 0.049
HT1080, 0.00152 µM	1.05 ± 0.051
HT1080, 0.00457 µM	1.07 ± 0.029
HT1080, 0.01372 µM	1.02 ± 0.044
HT1080, 0.04115 µM	1.05 ± 0.038
HT1080, 0.1235 µM	1.08 ± 0.062
HT1080, 0.3704 µM	1.06 ± 0.065
HT1080, 1.111 µM	1.02 ± 0.093
HT1080, 3.333 µM	0.959 ± 0.029
HT1080, 10 µM	0.41 ± 0.024
KHOS-240S, 0.00017 µM	1.06 ± 0.067
KHOS-240S, 0.00051 µM	1.05 ± 0.042
KHOS-240S, 0.00152 µM	1.01 ± 0.027
KHOS-240S, 0.00457 µM	0.999 ± 0.041
KHOS-240S, 0.01372 µM	0.939 ± 0.043
KHOS-240S, 0.04115 µM	0.828 ± 0.036
KHOS-240S, 0.1235 µM	0.762 ± 0.03
KHOS-240S, 0.3704 µM	0.713 ± 0.068
KHOS-240S, 1.111 µM	0.643 ± 0.092
KHOS-240S, 3.333 µM	0.521 ± 0.041
KHOS-240S, 10 µM	0.19 ± 0.0035
KHOS-NP, 0.00017 µM	1.07 ± 0.015
KHOS-NP, 0.00051 µM	1.06 ± 0.023
KHOS-NP, 0.00152 µM	1.05 ± 0.021
KHOS-NP, 0.00457 µM	1.06 ± 0.016
KHOS-NP, 0.01372 µM	1.04 ± 0.035
KHOS-NP, 0.04115 µM	1.04 ± 0.025
KHOS-NP, 0.1235 µM	1.02 ± 0.054
KHOS-NP, 0.3704 µM	1.01 ± 0.046
KHOS-NP, 1.111 µM	0.999 ± 0.038
KHOS-NP, 3.333 µM	0.943 ± 0.061
KHOS-NP, 10 µM	0.638 ± 0.049
RD-ES, 0.00017 µM	0.963 ± 0.04
RD-ES, 0.00051 µM	0.971 ± 0.013
RD-ES, 0.00152 µM	0.929 ± 0.025
RD-ES, 0.00457 µM	0.96 ± 0.031
RD-ES, 0.01372 µM	0.917 ± 0.022
RD-ES, 0.04115 µM	0.873 ± 0.027
RD-ES, 0.1235 µM	0.873 ± 0.043
RD-ES, 0.3704 µM	0.861 ± 0.027
RD-ES, 1.111 µM	0.783 ± 0.011
RD-ES, 3.333 µM	0.5562 ± 0.0023
RD-ES, 10 µM	0.148 ± 0.042
SK-ES-1, 0.00017 µM	1.02 ± 0.045
SK-ES-1, 0.00051 µM	1.03 ± 0.028
SK-ES-1, 0.00152 µM	1.04 ± 0.058
SK-ES-1, 0.00457 µM	1 ± 0.067
SK-ES-1, 0.01372 µM	0.957 ± 0.018
SK-ES-1, 0.04115 µM	0.876 ± 0.023
SK-ES-1, 0.1235 µM	0.872 ± 0.055
SK-ES-1, 0.3704 µM	0.818 ± 0.053
SK-ES-1, 1.111 µM	0.702 ± 0.033
SK-ES-1, 3.333 µM	0.33 ± 0.013
SK-ES-1, 10 µM	0.181 ± 0.012
SW684, 0.00017 µM	1.1 ± 0.073
SW684, 0.00051 µM	1.17 ± 0.069
SW684, 0.00152 µM	1.13 ± 0.05
SW684, 0.00457 µM	1.1 ± 0.087
SW684, 0.01372 µM	1.08 ± 0.016
SW684, 0.04115 µM	1.04 ± 0.023
SW684, 0.1235 µM	1.06 ± 0.031
SW684, 0.3704 µM	1.09 ± 0.045
SW684, 1.111 µM	0.998 ± 0.038
SW684, 3.333 µM	0.739 ± 0.014
SW684, 10 µM	0.39 ± 0.013
SW872, 0.00017 µM	1.03 ± 0.05
SW872, 0.00051 µM	1.05 ± 0.075
SW872, 0.00152 µM	1.07 ± 0.062
SW872, 0.00457 µM	1.01 ± 0.083
SW872, 0.01372 µM	0.989 ± 0.081
SW872, 0.04115 µM	0.985 ± 0.073
SW872, 0.1235 µM	0.949 ± 0.091
SW872, 0.3704 µM	0.912 ± 0.067
SW872, 1.111 µM	0.717 ± 0.045
SW872, 3.333 µM	0.5 ± 0.05
SW872, 10 µM	0.274 ± 0.063
SW982, 0.00017 µM	1.01 ± 0.011
SW982, 0.00051 µM	0.997 ± 0.049
SW982, 0.00152 µM	0.954 ± 0.041
SW982, 0.00457 µM	0.992 ± 0.021
SW982, 0.01372 µM	0.984 ± 0.055
SW982, 0.04115 µM	0.958 ± 0.077
SW982, 0.1235 µM	0.953 ± 0.021
SW982, 0.3704 µM	0.888 ± 0.029
SW982, 1.111 µM	0.544 ± 0.013
SW982, 3.333 µM	0.225 ± 0.0086
SW982, 10 µM	0.0452 ± 0.00079
SW1353, 0.00017 µM	1.07 ± 0.026
SW1353, 0.00051 µM	1.01 ± 0.026
SW1353, 0.00152 µM	0.975 ± 0.035
SW1353, 0.00457 µM	0.889 ± 0.058
SW1353, 0.01372 µM	0.859 ± 0.033
SW1353, 0.04115 µM	0.853 ± 0.049
SW1353, 0.1235 µM	0.787 ± 0.066
SW1353, 0.3704 µM	0.781 ± 0.041
SW1353, 1.111 µM	0.745 ± 0.038
SW1353, 3.333 µM	0.57 ± 0.014
SW1353, 10 µM	0.0859 ± 0.01
SYO-1, 0.00017 µM	0.933 ± 0.068
SYO-1, 0.00051 µM	0.814 ± 0.088
SYO-1, 0.00152 µM	0.734 ± 0.077
SYO-1, 0.00457 µM	0.674 ± 0.087
SYO-1, 0.01372 µM	0.588 ± 0.086
SYO-1, 0.04115 µM	0.519 ± 0.053
SYO-1, 0.1235 µM	0.451 ± 0.016
SYO-1, 0.3704 µM	0.396 ± 0.011
SYO-1, 1.111 µM	0.342 ± 0.008
SYO-1, 3.333 µM	0.248 ± 0.018
SYO-1, 10 µM	-0.0109 ± 0.0042
